In patent US20240287138A1, “CYCLIC PEPTIDES FOR INHIBITING TNF RECEPTOR 1 ACTIVITY” (Merck Sharp & Dohme LLC, priority 2023, published 2024):
Numbered stars: 1 amine (or outer) side, 2 acyl side, 3 side chain; on linkers, the order of the positions; unused ones are H or OH. Bridge positions count the residues as written; N and C are the ends. Square brackets hold non-standard residues; d marks the D form. Peptide text beside a SMILES is read from it. Phe(4-(4-Ac-piperazinyl)) = CC(=O)N1CCN(c2ccc(C[C@H](N)C(=O)O)cc2)CC1; Trp(7-aza,1-CH2COOH) = N[C@@H](Cc1cn(CC(=O)O)c2ncccc12)C(=O)O; Trp(βS-Me,7-OMe) = COc1cccc2c([C@H](C)[C@H](N)C(=O)O)c[nH]c12; Trp(1-CH2COOH) = N[C@@H](Cc1cn(CC(=O)O)c2ccccc12)C(=O)O; Trp(βS-Me) = C[C@@H](c1c[nH]c2ccccc12)[C@H](N)C(=O)O; dPro(trans-4-NMe2) = CN(C)[C@@H]1CN[C@@H](C(=O)O)C1; Trp(7-CN) = N#Cc1cccc2c(C[C@H](N)C(=O)O)c[nH]c12; Trp(7-Cl) = N[C@@H](Cc1c[nH]c2c(Cl)cccc12)C(=O)O; Phe(4-CONH2) = NC(=O)c1ccc(C[C@H](N)C(=O)O)cc1; Phe(4-COOH) = N[C@@H](Cc1ccc(C(=O)O)cc1)C(=O)O; 4Pal(3S-Me) = C[C@@H](c1ccncc1)[C@H](N)C(=O)O; X66 = O=C([C@@H](N[*:1])c1cccc(O)c1)[*:2]; Lys(Me3) = C[N+](C)(C)CCCC[C@H](N)C(=O)O; Pip(5R-OH) = O=C(O)[C@@H]1CC[C@@H](O)CN1; X1 = O=C([C@@H]1CC[C@H](N[*:1])C1)[*:2]; Pip(4-aza) = O=C(O)[C@@H]1CNCCN1; 4Pal = N[C@@H](Cc1ccncc1)C(=O)O; NMeE = CN[C@@H](CCC(=O)O)C(=O)O; dHyp = O=C(O)[C@H]1C[C@H](O)CN1; Ahp(2) = CCCCC[C@H](N)C(=O)O; Pip = O=C(O)[C@@H]1CCCCN1; αMeS = C[C@](N)(CO)C(=O)O; NMeA = CN[C@@H](C)C(=O)O; Nle = CCCC[C@H](N)C(=O)O; Sar = CNCC(=O)O

Biological target: T1, TNFα-induced NF-κB signal transduction pathway (TNFR1 signaling) in THP-1 cells (Homo sapiens, UniProt P19438)
T1 sequence (P19438 30-455): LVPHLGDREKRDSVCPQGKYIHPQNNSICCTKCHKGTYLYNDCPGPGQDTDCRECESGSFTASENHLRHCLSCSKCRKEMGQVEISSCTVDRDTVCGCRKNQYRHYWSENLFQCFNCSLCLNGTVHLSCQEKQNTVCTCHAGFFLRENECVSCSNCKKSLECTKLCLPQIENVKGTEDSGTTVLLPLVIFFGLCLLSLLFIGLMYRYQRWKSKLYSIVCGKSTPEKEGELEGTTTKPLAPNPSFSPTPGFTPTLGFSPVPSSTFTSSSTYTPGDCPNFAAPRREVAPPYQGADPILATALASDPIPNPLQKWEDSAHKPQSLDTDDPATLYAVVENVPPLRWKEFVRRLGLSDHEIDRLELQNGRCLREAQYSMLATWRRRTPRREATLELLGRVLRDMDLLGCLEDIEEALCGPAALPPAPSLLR
Test: THP-1 Lucia NF-κB reporter cell assay, inhibition of TNFα-induced NF-κB signaling
Assay type: cell-based
Conditions: THP-1 NF-κB Lucia reporter cells, 10 ng/mL TNFα, 16-18 h, secreted luciferase; read-out: THP-1 IC50
Method: C. Procedure for THP-1 Lucia NF-κB cells
The inhibition of TNFα-induced NF-κB signal transduction pathways was evaluated in THP-1 cells. THP-1 cells harboring NF-κB-inducible Lucia™ reporter gene (InvivoGen, cat. #thp1-nfkb) designed for monitoring NF-κB signal transduction pathway was employed to assess the inhibitory effect macrocyclic peptides on TNFR1 signaling. The cells were cultured in media containing RPMI 1640, 2 mM L-glutamine, 25 mM HEPES, 10% heat-inactivated fetal bovine serum with appropriate selection antibiotics. Assays were performed in media that was devoid of selection antibiotics. For profiling, 125 nL of peptides in DMSO (10 mM) were dispensed into Falcon® 384-well Optilux white/clear flat bottom TC-treated microtest microplate (Corning, cat. #353963) using Echo® 555. […] A suspension of 1 million cells/mL was dispensed at 20 μL/well in a 384-well plate to a density of 20,000 cells/well and pre-incubated with peptides at 37° C. for 1 h. Subsequently, 5 μL of TNF containing media (recombinant human TNFα; R&D Systems USA, cat. #210-TA-005/CF) or TNF-free media (for controls) was added to the wells. The final concentration of TNFα in the assay in 10 ng/mL. After o.n. incubation at 37° C. (16-18 h), 5 μL of supernatant was aspirated and transferred to a 384-well microplate (PerkinElmer, cat. #6007680) for measurement of secreted luciferase activity with 25 μL of QUANTI-Luc™ luminescence assay reagent (InvivoGen, cat. #rep-qlc1) in each well. The luminescence was measured in EnVision® Multimode Plate Reader (PerkinElmer). Dose response curves were analyzed using a 4-parameter logistic model to calculate IC50 values, reported in Table 2, using TIBCO® Spotfire® software employing appropriate Minimum and Maximum controls.

| Compound | IC50 [nM] |
| --- | --- |
| CCCC[C@@H]1NC(=O)[C@@H]2CC[C@@H](C2)NC(=O)[C@H]([C@@H](C)c2c[nH]c3c(OC)cccc23)NC(=O)CN(C)C(=O)[C@H](Cc2ccc(C(N)=O)cc2)NC(=O)[C@H](Cc2ccc(C(N)=O)cc2)NC(=O)[C@](C)(CO)NC(=O)[C@H](Cc2c[nH]c3c(C#N)cccc23)NC(=O)[C@H](Cc2ccc(C(=O)O)cc2)NC(=O)[C@H](CC(N)=O)NC(=O)[C@H]2C[C@H](N(C)C)CN2C(=O)[C@H](Cc2cn(CC(=O)O)c3ncccc23)NC(=O)[C@@H]2CC[C@@H](O)CN2C(=O)[C@H](Cc2ccncc2)NC1=O [SEQ ID NO. 32] (cyclo([4Pal][Pip(5R-OH)][Trp(7-aza,1-CH2COOH)][dPro(trans-4-NMe2)]N[Phe(4-COOH)][Trp(7-CN)][αMeS][Phe(4-CONH2)][Phe(4-CONH2)][Sar][Trp(βS-Me,7-OMe)][X1][Nle])) | 0.6 |
| C[C@@H](c1c[nH]c2ccccc12)[C@@H]1NC(=O)[C@H](CO)NC(=O)[C@H](Cc2ccc(O)cc2)NC(=O)[C@H](CCCCN)NC(=O)CSC[C@@H](C(N)=O)NC(=O)[C@H](Cc2c[nH]c3ccccc23)NC(=O)CN(C)C(=O)[C@H](Cc2ccc(O)cc2)NC(=O)[C@H](Cc2ccc(C(=O)O)cc2)NC(=O)[C@](C)(CO)NC(=O)[C@H](Cc2c[nH]c3ccccc23)NC(=O)[C@H](Cc2ccncc2)NC(=O)[C@H](CC(N)=O)NC(=O)[C@H](C)N(C)C1=O [SEQ ID NO. 36] ({CH2CO}-KYS[Trp(βS-Me)][NMeA]N[4Pal]W[αMeS][Phe(4-COOH)]Y[Sar]WC-NH2; thioether N-14) | 2.2 |
| COc1cccc2c([C@H](C)[C@@H]3NC(=O)CN(C)C(=O)[C@H](Cc4ccc(O)cc4)NC(=O)[C@H](Cc4ccc(C(=O)O)cc4)NC(=O)[C@](C)(CO)NC(=O)[C@H](Cc4c[nH]c5c(Cl)cccc45)NC(=O)[C@H](Cc4ccncc4)NC(=O)[C@H](CC(N)=O)NC(=O)[C@H](CCC(=O)O)N(C)C(=O)[C@H](Cc4c[nH]c5ccccc45)NC(=O)[C@@H]4CCCCN4C(=O)[C@H](Cc4ccncc4)NC(=O)[C@H](CCCC[N+](C)(C)C)NC(=O)[C@@H]4CC[C@@H](C4)NC3=O)c[nH]c12 [SEQ ID NO. 47] (cyclo([4Pal][Pip]W[NMeE]N[4Pal][Trp(7-Cl)][αMeS][Phe(4-COOH)]Y[Sar][Trp(βS-Me,7-OMe)][X1][Lys(Me3)])) | 1.9 |
| CCCC[C@@H]1NC(=O)CSC[C@@H](C(N)=O)NC(=O)[C@H]([C@@H](C)c2c[nH]c3c(OC)cccc23)NC(=O)CN(C)C(=O)[C@H](c2cccc(O)c2)NC(=O)[C@H](Cc2ccc(C(N)=O)cc2)NC(=O)[C@](C)(CO)NC(=O)[C@H](Cc2c[nH]c3c(Cl)cccc23)NC(=O)[C@H](Cc2ccc(C(=O)O)cc2)NC(=O)[C@H](CC(N)=O)NC(=O)[C@H](CCC(=O)O)N(C)C(=O)[C@H](Cc2cn(CC(=O)O)c3ccccc23)NC(=O)[C@@H]2CNCCN2C(=O)[C@H](Cc2ccncc2)NC1=O [SEQ ID NO. 52] ({CH2CO}-[Nle][4Pal][Pip(4-aza)][Trp(1-CH2COOH)][NMeE]N[Phe(4-COOH)][Trp(7-Cl)][αMeS][Phe(4-CONH2)][X66][Sar][Trp(βS-Me,7-OMe)]C-NH2; thioether N-14) | 3.9 |
| CCCCC[C@@H]1NC(=O)[C@@H]2CC[C@@H](C2)NC(=O)[C@H]([C@@H](C)c2c[nH]c3c(OC)cccc23)NC(=O)CN(C)C(=O)[C@H](Cc2ccc(C(N)=O)cc2)NC(=O)[C@H](Cc2ccc(C(N)=O)cc2)NC(=O)[C@](C)(CO)NC(=O)[C@H](Cc2c[nH]c3c(C#N)cccc23)NC(=O)[C@H](Cc2ccc(C(=O)O)cc2)NC(=O)[C@H](CC(N)=O)NC(=O)[C@H]2C[C@H](O)CN2C(=O)[C@H](Cc2c[nH]c3ccccc23)NC(=O)[C@H](CC(=O)O)NC(=O)[C@H]([C@@H](C)c2ccncc2)NC1=O [SEQ ID NO. 55] (cyclo([Ahp(2)][4Pal(3S-Me)]DW[dHyp]N[Phe(4-COOH)][Trp(7-CN)][αMeS][Phe(4-CONH2)][Phe(4-CONH2)][Sar][Trp(βS-Me,7-OMe)][X1])) | 1.3 |
| CCCC[C@@H]1NC(=O)[C@@H]2CC[C@@H](C2)NC(=O)[C@H]([C@@H](C)c2c[nH]c3c(OC)cccc23)NC(=O)CN(C)C(=O)[C@H](Cc2ccc(N3CCN(C(C)=O)CC3)cc2)NC(=O)[C@H](Cc2ccc(C(=O)O)cc2)NC(=O)[C@](C)(CO)NC(=O)[C@H](Cc2c[nH]c3c(Cl)cccc23)NC(=O)[C@H](Cc2ccncc2)NC(=O)[C@H](CC(N)=O)NC(=O)[C@H](CCC(=O)O)N(C)C(=O)[C@H](Cc2c[nH]c3ccccc23)NC(=O)[C@@H]2CNCCN2C(=O)[C@H](Cc2ccncc2)NC1=O [SEQ ID NO. 63] (cyclo([4Pal][Trp(7-Cl)][αMeS][Phe(4-COOH)][Phe(4-(4-Ac-piperazinyl))][Sar][Trp(βS-Me,7-OMe)][X1][Nle][4Pal][Pip(4-aza)]W[NMeE]N)) | 1.2 |
